Reference: the supplement of paper PMC12533247
± gives the standard deviation of the averaged measurements.

Tests used:
[1] = tested on: HSV-1 K26-GFP infected primary human skin cells; experiment: % change of HSV-1 GFP signal vs untreated infected cells; higher = less antiviral inhibition
Protocol: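 2D primary donor-derived keratinocytes (read at 20 hpi) and donor-matched dermal fibroblasts (read at 48 hpi) infected with GFP-HSV-1 K26 at MOI 1 and treated 1 h later with compound dilutions. IncuCyte GFP integrated intensity is normalised by subtracting mock-infected wells and dividing by untreated infected wells, shown as % change (-100 = full inhibition).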

[2] = tested on: HSV-1 K26-GFP infected 3D skin equivalent; experiment: % activity on HSV-1 GFP signal (0 = infected DMSO control, -100 = uninfected control); higher = higher signal (negative = inhibition / toxicity); conditions: time (h post infection): 48
Protocol: (§1)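 Triplicate dose-response (0.04 to 10 uM) of 11 top compounds in 3D bioprinted skin equivalents (submerged and ALI models) infected with GFP-HSV-1 K26 at MOI 0.1 and fixed at 48 hpi. GFP (virus) and tdTomato (fibroblast viability) signals are normalised to per-plate controls.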

primary keratinocytes = experiment: % change in live cells vs DMSO control; higher = less cytotoxic; conditions: time (h post treatment): 20
Protocol: (§2)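 Cytotoxicity in uninfected 2D primary donor keratinocytes (20 h post treatment) and fibroblasts (48 h post treatment), measured with NucSpot live/dead dyes on IncuCyte. Live cells are normalised to the 0.2% DMSO control and shown as % change. Three biological replicates for each of donors 3, 4 and 5.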

[3] = tested on: primary dermal fibroblasts; experiment: as above; conditions: time (h post treatment): 48
Protocol: as §2

[4] = tested on: HSV-1 K26-GFP infected 3D skin equivalent; experiment: % change of tdTomato fibroblast signal relative to infected DMSO control; higher = higher signal (negative = inhibition / toxicity); conditions: time (h post infection): 48
Protocol: as §1

COc1ccc(-c2nc(N3CCOCC3)c3sc(CN(C)c4ncc(C(=O)NO)cn4)cc3n2)cn1 [Fimepinostat]
% change of HSV-1 GFP signal [%], [1]
Conditions	0.003 µM	0.0091 µM	0.0274 µM	0.0823 µM	0.2469 µM	0.7407 µM	2.2222 µM	6.6667 µM	20 µM	60 µM
cell type: primary dermal fibroblasts, donor: 5, time (h post infection): 48	-12.8 ± 4.4	-13.7 ± 5.4	-14.2 ± 5.5	-12.3 ± 3.9	-12 ± 6.5	-18.4 ± 12	-25.6 ± 15	-32.6 ± 16	-34.1 ± 16	-28.4 ± 16
cell type: primary keratinocytes, donor: 3, time (h post infection): 20	6.27 ± 19	-3.11 ± 18	2.91 ± 18	1.02 ± 22	-16.3 ± 15	-33.2 ± 14	-41.3 ± 12	-43 ± 15	-64.7 ± 12	-48.6 ± 7.7
cell type: primary keratinocytes, donor: 4, time (h post infection): 20	-14.2 ± 39	-25.2 ± 46	-17.4 ± 42	-25 ± 40	-33 ± 54	-64.8 ± 23	-69.2 ± 17	-76.4 ± 15	-89.2 ± 12	-72.7 ± 16
cell type: primary keratinocytes, donor: 5, time (h post infection): 20	-6.73 ± 19	-26.4 ± 10	-15.1 ± 12	-24.8 ± 16	-44.7 ± 4.9	-48 ± 9.1	-58.2 ± 2.6	-64.6 ± 2.8	-70.5 ± 3.6	-57.8 ± 5.4

Conditions	% activity on HSV-1 GFP signal, [2] [%]	% change in live cells, [3] [%]	% change in live cells, primary keratinocytes [%]	% change of tdTomato fibroblast signal, [4] [%]
0.041152 µM, model: ALI	-85.1 ± 18	–	–	-7.82 ± 20
0.041152 µM, model: submerged	2.37 ± 11	–	–	12.3 ± 16
0.082305 µM, donor: 3	–	-29.3 ± 17	-23.3 ± 15	–
0.082305 µM, donor: 4	–	-13 ± 12	-5.33 ± 4.7	–
0.082305 µM, donor: 5	–	6.67 ± 20	-8 ± 2.6	–
0.123457 µM, model: ALI	-97.4 ± 11	–	–	-14 ± 5.4
0.123457 µM, model: submerged	6.63 ± 8.2	–	–	9.59 ± 5.7
0.246914 µM, donor: 3	–	-34.3 ± 18	-39.7 ± 23	–
0.246914 µM, donor: 4	–	-33.3 ± 1.5	-20.7 ± 18	–
0.246914 µM, donor: 5	–	-8.67 ± 19	-13.7 ± 7.6	–
0.37037 µM, model: ALI	-79.6 ± 15	–	–	-3.36 ± 5.6
0.37037 µM, model: submerged	-1.58 ± 24	–	–	12.7 ± 13
0.740741 µM, donor: 3	–	-41.3 ± 13	-38.7 ± 4	–
0.740741 µM, donor: 4	–	-44 ± 9.6	-34.3 ± 11	–
0.740741 µM, donor: 5	–	-23.3 ± 20	-38 ± 8	–
1.111111 µM, model: ALI	-64.2 ± 7.7	–	–	-5.66 ± 9
1.111111 µM, model: submerged	-31.5 ± 15	–	–	8.55 ± 11
2.22222 µM, donor: 3	–	-56 ± 12	-41.3 ± 14	–
2.22222 µM, donor: 4	–	-67.3 ± 14	-59 ± 6.2	–
2.22222 µM, donor: 5	–	-56.3 ± 18	-58.7 ± 7.1	–
3.33333 µM, model: ALI	-78.3 ± 10	–	–	-20.2 ± 5.3
3.33333 µM, model: submerged	-75.6 ± 8.3	–	–	-1.39 ± 20
6.66667 µM, donor: 3	–	-61 ± 11	-42.3 ± 12	–
6.66667 µM, donor: 4	–	-60.3 ± 9.6	-79.3 ± 6	–
6.66667 µM, donor: 5	–	-60 ± 14	-67 ± 6	–
10 µM, model: ALI	-88.6 ± 2.1	–	–	-11 ± 5.8
10 µM, model: submerged	-87.4 ± 7.2	–	–	-3.36 ± 9.8
20 µM, donor: 3	–	-64.7 ± 12	-76 ± 6.1	–
20 µM, donor: 4	–	-56.3 ± 16	-99.7 ± 3.2	–
20 µM, donor: 5	–	-68 ± 7.5	-80.7 ± 2.1	–
60 µM, donor: 3	–	-75 ± 10	-95.3 ± 3.5	–
60 µM, donor: 4	–	-60.3 ± 22	-94.33 ± 0.58	–
60 µM, donor: 5	–	-79.3 ± 3.8	-95.33 ± 0.58	–
